{"source": "paper PMC10150366", "about": "“Discovery of an In Vivo Chemical Probe for BCL6 Inhibition by Optimization of Tricyclic Quinolinones” (Journal of Medicinal Chemistry, 2023)", "key": {"HTR2B": {"target": "HTR2B (Homo sapiens, UniProt P41595)", "sequence (P41595 whole entry)": "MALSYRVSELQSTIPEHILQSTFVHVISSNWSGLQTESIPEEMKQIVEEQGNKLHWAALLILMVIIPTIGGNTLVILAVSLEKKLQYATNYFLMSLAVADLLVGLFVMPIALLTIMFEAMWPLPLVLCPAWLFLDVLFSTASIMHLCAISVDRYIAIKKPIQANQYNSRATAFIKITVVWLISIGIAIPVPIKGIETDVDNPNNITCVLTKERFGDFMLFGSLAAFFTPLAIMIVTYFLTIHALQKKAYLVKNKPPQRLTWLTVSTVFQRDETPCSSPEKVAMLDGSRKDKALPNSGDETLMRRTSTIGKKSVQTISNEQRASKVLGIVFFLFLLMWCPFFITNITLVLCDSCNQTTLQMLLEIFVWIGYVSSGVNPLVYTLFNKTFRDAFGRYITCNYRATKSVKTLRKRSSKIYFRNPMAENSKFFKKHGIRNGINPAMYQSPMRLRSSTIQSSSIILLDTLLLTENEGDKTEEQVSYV", "assay": "SAFETYscan Calcium Flux HTR2B Agonist", "type": "cell-based", "from_the_text": "(§1) Supplement jm3c00155_si_002.xlsx, sheet \"SAFETYScan\" | column: RC50 (uM); Max Response"}, "PDE4D2": {"target": "PDE4D2 (Homo sapiens, UniProt Q08499)", "sequence (Q08499 303-809 limits assumed)": "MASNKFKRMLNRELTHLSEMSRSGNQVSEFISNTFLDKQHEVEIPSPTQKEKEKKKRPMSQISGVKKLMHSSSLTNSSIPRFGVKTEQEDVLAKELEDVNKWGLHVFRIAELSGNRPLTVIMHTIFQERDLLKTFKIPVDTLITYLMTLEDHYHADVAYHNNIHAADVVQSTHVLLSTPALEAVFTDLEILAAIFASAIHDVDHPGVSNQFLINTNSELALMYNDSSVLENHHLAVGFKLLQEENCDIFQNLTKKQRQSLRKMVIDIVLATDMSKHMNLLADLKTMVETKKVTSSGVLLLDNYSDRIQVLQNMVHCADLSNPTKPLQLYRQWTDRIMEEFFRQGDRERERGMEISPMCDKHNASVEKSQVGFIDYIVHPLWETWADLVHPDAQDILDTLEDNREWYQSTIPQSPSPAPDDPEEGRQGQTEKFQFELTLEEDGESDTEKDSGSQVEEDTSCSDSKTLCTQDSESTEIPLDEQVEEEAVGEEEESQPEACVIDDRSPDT", "assay": "SAFETYscan Enzymatic PDE4D2 Inhibitor", "type": "biochemical", "from_the_text": "as §1"}, "nAChR(a4/b2)": {"target": "nAChR(a4/b2) (Homo sapiens, UniProt P17787+P43681)", "sequence (P43681 29-627 limits assumed)": "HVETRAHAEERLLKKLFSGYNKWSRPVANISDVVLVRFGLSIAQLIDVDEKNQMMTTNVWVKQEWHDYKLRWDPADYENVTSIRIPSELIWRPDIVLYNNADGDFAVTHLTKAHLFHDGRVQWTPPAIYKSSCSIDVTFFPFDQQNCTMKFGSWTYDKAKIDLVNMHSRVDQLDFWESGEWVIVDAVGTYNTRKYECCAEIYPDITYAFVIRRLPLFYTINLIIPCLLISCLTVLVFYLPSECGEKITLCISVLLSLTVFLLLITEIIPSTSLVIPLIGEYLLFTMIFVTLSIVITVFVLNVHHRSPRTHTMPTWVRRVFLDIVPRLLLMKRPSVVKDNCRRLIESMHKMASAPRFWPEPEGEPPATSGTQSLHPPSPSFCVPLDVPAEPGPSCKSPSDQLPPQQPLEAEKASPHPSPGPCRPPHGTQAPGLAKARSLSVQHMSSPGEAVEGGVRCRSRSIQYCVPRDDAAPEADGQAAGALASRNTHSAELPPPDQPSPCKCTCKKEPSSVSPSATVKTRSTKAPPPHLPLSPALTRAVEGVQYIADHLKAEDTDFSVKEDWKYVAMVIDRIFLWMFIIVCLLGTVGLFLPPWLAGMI", "sequence (P17787 26-502)": "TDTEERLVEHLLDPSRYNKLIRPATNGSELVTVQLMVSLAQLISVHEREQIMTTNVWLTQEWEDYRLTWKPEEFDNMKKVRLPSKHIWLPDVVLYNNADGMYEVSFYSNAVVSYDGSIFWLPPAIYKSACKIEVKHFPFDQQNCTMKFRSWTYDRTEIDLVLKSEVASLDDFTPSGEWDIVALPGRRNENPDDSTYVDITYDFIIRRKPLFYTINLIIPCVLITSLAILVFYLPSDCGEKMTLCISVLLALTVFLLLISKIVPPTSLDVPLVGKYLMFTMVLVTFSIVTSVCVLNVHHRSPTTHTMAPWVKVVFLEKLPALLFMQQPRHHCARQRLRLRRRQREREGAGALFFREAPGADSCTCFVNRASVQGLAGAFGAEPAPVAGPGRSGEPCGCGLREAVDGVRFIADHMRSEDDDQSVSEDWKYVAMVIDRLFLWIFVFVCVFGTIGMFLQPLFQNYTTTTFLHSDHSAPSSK", "assay": "SAFETYscan Ion Channel nAChR(a4/b2) Opener", "type": "cell-based", "from_the_text": "as §1"}, "KvLQT1/minK [1]": {"target": "T1, KvLQT1/minK (Homo sapiens, UniProt P51787)", "assay": "SAFETYscan Ion Channel KvLQT1/minK Blocker", "type": "cell-based", "from_the_text": "as §1"}, "KvLQT1/minK [2]": {"target": "T1, KvLQT1/minK", "assay": "SAFETYscan Ion Channel KvLQT1/minK Opener", "type": "cell-based", "from_the_text": "as §1"}, "GR": {"target": "T2, GR (Homo sapiens, UniProt P04150)", "T2 sequence (P04150 1-777)": "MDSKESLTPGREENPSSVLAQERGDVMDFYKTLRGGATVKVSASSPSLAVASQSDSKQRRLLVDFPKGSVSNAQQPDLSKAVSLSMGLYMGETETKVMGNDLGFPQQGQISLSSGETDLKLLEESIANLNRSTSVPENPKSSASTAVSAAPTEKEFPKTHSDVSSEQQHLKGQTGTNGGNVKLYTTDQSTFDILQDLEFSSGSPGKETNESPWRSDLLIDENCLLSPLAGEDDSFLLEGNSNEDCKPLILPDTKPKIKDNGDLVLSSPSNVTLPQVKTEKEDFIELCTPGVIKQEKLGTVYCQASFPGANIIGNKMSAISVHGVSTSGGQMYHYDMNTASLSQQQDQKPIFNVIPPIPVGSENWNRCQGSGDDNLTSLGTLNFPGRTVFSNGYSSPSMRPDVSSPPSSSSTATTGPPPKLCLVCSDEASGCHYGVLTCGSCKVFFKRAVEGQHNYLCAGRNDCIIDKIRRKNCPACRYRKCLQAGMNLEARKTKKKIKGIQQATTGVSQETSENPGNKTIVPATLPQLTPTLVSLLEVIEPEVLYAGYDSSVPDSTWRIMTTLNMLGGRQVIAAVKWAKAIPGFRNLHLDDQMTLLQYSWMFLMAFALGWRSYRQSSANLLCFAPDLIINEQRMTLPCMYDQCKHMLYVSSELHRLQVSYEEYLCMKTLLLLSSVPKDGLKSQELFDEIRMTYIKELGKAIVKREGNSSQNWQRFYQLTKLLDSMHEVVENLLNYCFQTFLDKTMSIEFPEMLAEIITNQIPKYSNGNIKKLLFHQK", "assay": "SAFETYscan NHR Protein Interaction GR Antagonist", "type": "cell-based", "from_the_text": "as §1"}, "ADRA2A": {"target": "T3, ADRA2A (Homo sapiens, UniProt P08913)", "T3 sequence (P08913 1-465)": "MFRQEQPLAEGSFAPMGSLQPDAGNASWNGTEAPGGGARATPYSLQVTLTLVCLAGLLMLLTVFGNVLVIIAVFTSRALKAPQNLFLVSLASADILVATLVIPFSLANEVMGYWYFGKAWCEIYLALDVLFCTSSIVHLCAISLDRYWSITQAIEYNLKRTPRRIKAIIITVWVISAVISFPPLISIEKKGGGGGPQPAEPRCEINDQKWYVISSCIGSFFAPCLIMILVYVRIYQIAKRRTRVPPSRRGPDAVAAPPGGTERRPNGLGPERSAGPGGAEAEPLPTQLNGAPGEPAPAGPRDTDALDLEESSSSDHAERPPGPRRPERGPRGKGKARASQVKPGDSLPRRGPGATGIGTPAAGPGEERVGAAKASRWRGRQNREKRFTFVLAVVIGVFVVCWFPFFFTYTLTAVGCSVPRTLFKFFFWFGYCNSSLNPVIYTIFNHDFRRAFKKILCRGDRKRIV", "assay": "SAFETYscan cAMP ADRA2A Antagonist", "type": "cell-based", "from_the_text": "as §1"}, "ARID3A mRNA": {"tested_on": "ARID3A mRNA", "assay": "ARID3A mRNA in Karpas 422 tumour xenografts (quantitative RT-PCR)", "type": "in vivo, mouse", "conditions": "50 mg/kg PO, 12 h post dose, TaqMan PCR", "protocol": "frozen in liquid nitrogen, dedicating one half to PK analysis and the other half to pharmacodynamic analysis (PD). All frozen material was permanently stored in a -80°C freezer.\n5.3.5 Tumour lysis and Wes method\nTumours were lysed in lysis buffer (50 mM Tris-HCl, pH 7.4, 150 mM NaCl, 1% Triton X-100 (v/v), 1 mM PMSF, 1 mM activated sodium vanandate, 1 mM EDTA, phosphatase inhibitors 2 and 3 (1:50m dilution) and protease cocktail (1:100 dilution)) using reinforced homogenizing tubes containing metal beads using a Precellys 24 with cryolys cooling at 6000 rpm, 2 × 20 s (Stretton Scientific). Lysates were incubated on ice for 15 minutes, spun at 14000 rpm at 4 °C for 10 minutes and supernatants collected and aliquoted.\nSamples were stored at -80 °C until use. Protein concentration was determined by diluting 1:10 with lysis buffer and measuring on Direct Detect® spectrometer according to manufacturer’s instructions.\nProtein lysates were diluted to 0.0875 mg/ml with 0.1x sample buffer and run on Wes 12-230 kDa kit according to manufacturer’s instructions (ProteinSimple) with multiplexing BCL6 (CST14895 at 1:150 dilution) and GAPDH (CST 2118 at 1:50 dilution). Data was analysed using Compass for SW software. […]\n5.3.6 Quantitative RT-PCR […]\n(ThermoFisher Scientific). ARID3A expression relative to vehicle-treated tumours was determined using […]"}, "LCK": {"target": "LCK (Homo sapiens, UniProt P06239)", "sequence (P06239 whole entry)": "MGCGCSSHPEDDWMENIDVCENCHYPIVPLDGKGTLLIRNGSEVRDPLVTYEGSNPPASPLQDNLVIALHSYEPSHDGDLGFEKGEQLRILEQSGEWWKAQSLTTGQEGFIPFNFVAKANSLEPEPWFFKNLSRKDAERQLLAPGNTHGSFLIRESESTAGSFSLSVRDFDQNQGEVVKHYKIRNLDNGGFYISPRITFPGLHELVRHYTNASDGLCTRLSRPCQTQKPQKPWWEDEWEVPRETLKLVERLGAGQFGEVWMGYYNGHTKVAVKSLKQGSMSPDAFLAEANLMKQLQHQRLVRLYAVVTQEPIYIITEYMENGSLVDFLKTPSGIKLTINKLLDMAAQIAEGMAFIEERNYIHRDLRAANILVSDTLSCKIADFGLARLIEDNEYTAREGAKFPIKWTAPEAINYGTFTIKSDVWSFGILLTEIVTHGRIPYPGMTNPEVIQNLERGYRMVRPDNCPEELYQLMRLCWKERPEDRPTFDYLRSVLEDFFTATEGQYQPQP", "assay": "SAFETYscan Kinases Binding LCK Inhibitor", "from_the_text": "as §1"}, "CNR2": {"target": "CNR2 (Homo sapiens, UniProt P34972)", "sequence (P34972 whole entry)": "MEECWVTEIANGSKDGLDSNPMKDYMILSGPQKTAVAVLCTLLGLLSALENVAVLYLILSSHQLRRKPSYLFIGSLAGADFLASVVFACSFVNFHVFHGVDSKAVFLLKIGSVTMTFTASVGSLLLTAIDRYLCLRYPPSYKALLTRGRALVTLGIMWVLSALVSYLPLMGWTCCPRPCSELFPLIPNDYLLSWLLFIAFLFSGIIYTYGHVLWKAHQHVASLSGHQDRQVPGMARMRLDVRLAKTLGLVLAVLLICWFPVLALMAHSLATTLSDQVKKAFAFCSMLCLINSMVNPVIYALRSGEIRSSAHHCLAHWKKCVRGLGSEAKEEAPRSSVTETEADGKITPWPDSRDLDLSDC", "assay": "SAFETYscan cAMP CNR2 Agonist", "type": "cell-based", "from_the_text": "Supplement jm3c00155_si_002.xlsx, sheet \"SAFETYScan\" | column: RC50 (uM); Hill; Max Response"}, "MAOA": {"target": "MAOA (Homo sapiens, UniProt P21397)", "sequence (P21397 whole entry, species assumed)": "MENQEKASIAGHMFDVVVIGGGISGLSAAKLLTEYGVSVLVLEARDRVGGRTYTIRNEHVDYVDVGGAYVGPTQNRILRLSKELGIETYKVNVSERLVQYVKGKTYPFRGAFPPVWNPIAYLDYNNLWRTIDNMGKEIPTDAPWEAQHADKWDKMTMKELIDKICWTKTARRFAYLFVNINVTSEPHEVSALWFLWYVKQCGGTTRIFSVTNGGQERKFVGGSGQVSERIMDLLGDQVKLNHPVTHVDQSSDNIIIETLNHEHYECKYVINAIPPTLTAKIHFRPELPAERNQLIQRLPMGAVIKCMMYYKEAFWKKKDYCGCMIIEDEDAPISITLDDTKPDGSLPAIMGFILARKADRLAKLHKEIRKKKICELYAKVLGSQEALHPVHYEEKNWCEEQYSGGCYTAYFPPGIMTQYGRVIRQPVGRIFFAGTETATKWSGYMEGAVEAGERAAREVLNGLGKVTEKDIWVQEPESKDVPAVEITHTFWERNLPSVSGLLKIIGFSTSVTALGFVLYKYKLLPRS", "assay": "SAFETYscan Enzymatic MAOA Inhibitor", "type": "biochemical", "from_the_text": "as §1"}}}
{"smiles": "Cn1c(=O)c2c(c3cc(Nc4ccnc(F)c4Cl)ccc31)N[C@@H](C1CC1)C(F)(F)CO2", "note": "[compound 17, (S)-10-((3-chloro-2-fluoropyridin-4-yl)amino)-2-cyclopropyl-3,3-difluoro-7-methyl-1,2,3,4-tetrahydro-[1,4]oxazepino[2,3-c]quinolin-6(7H)-one]", "values": [{"measurement": "EC50", "setting": "HTR2B", "result": "> 10", "unit": "µM"}, {"measurement": "Emax", "setting": "HTR2B; HTR2B, Calcium Flux, Agonist, read-out: Max Response", "result": 0, "unit": "%"}, {"measurement": "Emax", "setting": "PDE4D2; read-out: Max Response", "result": 15, "unit": "%"}, {"measurement": "IC50", "setting": "PDE4D2; read-out: RC50 (IC50)", "result": "> 10", "unit": "µM"}, {"measurement": "EC50", "setting": "nAChR(a4/b2)", "result": "> 10", "unit": "µM"}, {"measurement": "Emax", "setting": "nAChR(a4/b2); nAChR(a4/b2), Ion Channel, Opener, read-out: Max Response", "result": 3.37, "unit": "%"}, {"measurement": "Emax", "setting": "KvLQT1/minK [1]; read-out: Max Response", "result": 12.6, "unit": "%"}, {"measurement": "IC50", "setting": "KvLQT1/minK [1]; read-out: RC50 (IC50)", "result": "> 10", "unit": "µM"}, {"measurement": "Emax", "setting": "KvLQT1/minK [2]; read-out: Max Response", "result": 1.07, "unit": "%"}, {"measurement": "EC50", "setting": "KvLQT1/minK [2]; read-out: RC50 (EC50)", "result": "> 10", "unit": "µM"}, {"measurement": "Emax", "setting": "GR; read-out: Max Response", "result": 12.3, "unit": "%"}, {"measurement": "IC50", "setting": "GR; read-out: RC50 (IC50)", "result": "> 10", "unit": "µM"}, {"measurement": "IC50", "setting": "ADRA2A", "result": "> 10", "unit": "µM"}, {"measurement": "Emax", "setting": "ADRA2A; ADRA2A, cAMP, Antagonist, read-out: Max Response", "result": 0, "unit": "%"}, {"measurement": "ARID3A mRNA expression in tumor xenografts", "setting": "ARID3A mRNA", "result": "significant increase in ARID3A mRNA expression"}, {"measurement": "Emax", "setting": "LCK; read-out: Max Response", "result": 0.08, "unit": "%"}, {"measurement": "IC50", "setting": "LCK; read-out: RC50 (IC50)", "result": "> 10", "unit": "µM"}, {"measurement": "EC50", "setting": "CNR2", "result": 1.4, "unit": "µM"}, {"measurement": "Hill", "setting": "CNR2; CNR2, cAMP, Agonist", "result": 0.61}, {"measurement": "Emax", "setting": "CNR2; CNR2, cAMP, Agonist, read-out: Max Response", "result": 77.7, "unit": "%"}, {"measurement": "Emax", "setting": "MAOA; read-out: Max Response", "result": 0, "unit": "%"}, {"measurement": "IC50", "setting": "MAOA; read-out: RC50 (IC50)", "result": "> 10", "unit": "µM"}]}
